{
  "source": "patent US10308640B2",
  "about": "“1,3-dihydroimidazole-2-thione derivatives for use in the treatment of pulmonary arterial hypertension and lung injury” (BIAL—PORTELA & CA S.A., priority 2012, dated 2019)",
  "key": {"[1]": {"test_system": "Monocrotaline (MCT) lung injury model of Pulmonary Arterial Hypertension", "experiment": "Cardiac remodelling (organ weight ratios, Fulton index) in the MCT lung injury model of PAH", "format": "in vivo, rat", "conditions": "compared to MCT group; for right ventricular hypertrophy: 28 days", "source_text": "(§1) One of the most-used animal models is the Monocrotaline (MCT) lung injury model of Pulmonary Arterial Hypertension. Administration of MCT, that is metabolized in the liver to the reactive metabolite dehydromonocrotaline, results in a syndrome characterized by acute lung injury, interstitial pulmonary fibrosis, necrotizing pulmonary arteritis, pulmonary hypertension, right ventricular (RV) hypertrophy, myocarditis and hepatic venoocclusive disease.\n(§2) The protocol to use is a standard one (Curr. Protoc. Pharmacol. 46:5.56.1-5.56.11(2009) John Wiley & Sons Inc). Rats, of 6-7 weeks old (150-200 g) are administered MCT 60 mg/kg subcutaneously, and the pathology usually develops in the course of initial 3 to 4 weeks with the animals dying within the next 2 weeks (5th-6th week). A decrease of 50% in food and water consumption is thought to be indicative of pathological status severe enough for testing.\n(§3) The experimental details are described in more detail below; briefly, compounds were given to rats mixed with food starting, Compound B (30 mg/kg/day) for groups MCT+Compound B and SHAM+Compound B, bosentan (300 mg/kg/day) for group MCT+Bos300, bosentan (100 mg/kg/day) for group MCT+Bos100, Compound B+bosentan (30+100 mg/kg/day) for group MCT+Compound B+Bos100, and no compound for groups MCT and SHAM. Animals from groups MCT were administered MCT and animals from groups SHAM were administered vehicle. Twenty eight days later, surviving animals were sacrificed, tissues collected and weighed. During the entire experimental period food, water consumption and animal weight were monitored. The ratios organ weight to body weight (BW) were calculated to evaluate organ hypertrophy. The index of RV/LV+S was calculated as an index of RV hypertrophy. In each study an n=10 animals was used for each MCT treatment group, and an n=6 was used for the groups not given MCT. The animals from MCT+Bos300 group from Study 1 were not considered for the combined survival analysis since these unexpectedly presented a higher mortality effect as compared to the MCT group. The surviving animals from this group were nevertheless considered for the cardiac remodelling analysis.\nAll data is expressed as mean±sem (Standard Error of the Mean) unless otherwise indicated. Differences between treatment groups were analysed by one-way ANOVA and post-hoc Newman-Keuls multiple comparison test. P<0.05 was considered statistically significant.\nOn day 28 surviving animals were sacrificed and the following tissues/organs collected and weighed: liver, kidney, lung, heart and spleen. Femurs were removed and measured. Heart was dissected into right ventricle, left ventricle+septum and these were also weighed. The ratio organ to body weight (BW) was calculated as well as the ratio organ weight to femur length. The index of RV/LV+S is an index of RV hypertrophy. Catecholamines were evaluated only on right ventricle and left ventricle+septum.\nWhole spleen, whole liver, left kidney and lungs were removed, cleaned and weighed. Heart was removed, cleaned from atria and vascular tissue and weighed. Right ventricle was then dissected from the rest of the heart (left ventricle +septum) and both were weighed and put in tubes containing 0.2 M PCA. Femurs were removed, cleaned and length measured with a calliper.\nThe ratios organ weight to body weight and organ weight to femur length were calculated as well as the ratio right ventricular weight to left ventricular+septum weight.\nOrgans weighed were: liver, kidney, lung, heart and spleen. Heart was dissected into right ventricle, left ventricle+septum and these were also weighed. The ratio organ to body weight (BW) was calculated as well as the ratio organ weight to femur length. The index of RV/LV+S is an index of RV hypertrophy.\nWhole spleen, whole liver, both kidneys and lungs were removed, cleaned and weighed. Heart was removed, cleaned from atria and vascular tissue and weighed. […]"}, "[2]": {"test_system": "Monocrotaline (MCT) lung injury model of Pulmonary Arterial Hypertension", "experiment": "Survival in the Monocrotaline (MCT) lung injury model of Pulmonary Arterial Hypertension (Kaplan-Meier curves, 28 days)", "format": "in vivo, rat", "conditions": "MCT rats; for survival (survival curve): compared to MCT group", "source_text": "as §1, §2\nTwo studies were conducted separately and a combination analysis performed on the two studies. Each study consisted in the scheme represented in FIG. 1.\nThe experimental design of both studies was the same, with animals randomized in seven groups, five groups of 10 animals each (MCT, MCT+Bos300, MCT+Bos100, MCT+Compound B, MCT+Compound B+Bos100) and 2 groups of 6 animals each (SHAM and SHAM+Compound B).\nas §3, with “In each study an n=10 animals was used for each MCT treatment group, and an n=6 was used for the groups not given MCT. The animals from MCT+Bos300 group from Study 1 were not considered for the combined survival analysis since these unexpectedly presented a higher mortality effect as compared to the MCT group. The surviving animals from this group were nevertheless considered for the cardiac remodelling analysis.” left out\nAnimals were given powdered food for an adaptation period of 3-5 days before treatment start. […] Food, water consumption and animal weight were monitored over the entire duration of the experiment.\nAnimals were given powdered food for an adaptation period of 3-5 days before treatment start. […] Animal weight, food and water consumption were evaluated twice a week and animals were regularly observed for any disease signs. Mortality was registered and on day 28 surviving animals were sacrificed, selected organs weighed and femurs removed and measured. […]"}, "[3]": {"conditions": "Compound B alone 30 mg/kg/day, 28 days after MCT"}, "[4]": {"conditions": "Bosentan 300 mg/kg/day, 28 days after MCT"}},
  "data": [
    {"smiles": "Fc1cc(F)c2c(c1)C[C@@H](n1c(CCNCc3ccccc3)c[nH]c1=S)CO2", "note": "[Compound B, (R)-5-(2-(benzylamino)ethyl)-1-(6,8-difluorochroman-3-yl)-1H-imidazole-2(3H)-thione]", "values": [
      {"measurement": "right ventricular hypertrophy", "setting": "[1]; Compound B 30 mg/kg/day", "result": "significant decreased"},
      {"measurement": "Fulton Index (RV/LV+S)", "setting": "[1]; [3]", "result": "significantly decreased"},
      {"measurement": "heart weight over bodyweight (BW)", "setting": "[1]; [3]", "result": "significantly decreased"},
      {"measurement": "right ventricle (RV) weight over bodyweight (BW)", "setting": "[1]; [3]", "result": "significantly decreased"},
      {"measurement": "survival (survival curve)", "setting": "[2]; Compound B 30 mg/kg/day in food", "result": "slight increase in survival"},
      {"measurement": "survival rates compared to the use of bosentan alone", "setting": "[2]; Compound B alone 30 mg/kg/day", "result": "greater survival rates"}
    ]},
    {"smiles": "COc1ccccc1Oc1c(NS(=O)(=O)c2ccc(C(C)(C)C)cc2)nc(-c2ncccn2)nc1OCCO", "note": "[bosentan, Bosentan]", "values": [
      {"measurement": "Fulton Index (RV/LV+S)", "setting": "[1]; [4]", "result": "significantly decreased"},
      {"measurement": "right ventricle (RV) weight over bodyweight (BW)", "setting": "[1]; [4]", "result": "significantly decreased"},
      {"measurement": "right ventricular hypertrophy", "setting": "[1]; bosentan 100 mg/kg/day (MCT+Bos100)", "result": "significant decreased"},
      {"measurement": "right ventricular hypertrophy", "setting": "[1]; bosentan 300 mg/kg/day (MCT+Bos300)", "result": "marked and statistically significant decrease"},
      {"measurement": "survival (survival curve)", "setting": "[2]; bosentan 100 mg/kg/day in food", "result": "No clear benefit"},
      {"measurement": "survival (survival curve)", "setting": "[2]; bosentan 300 mg/kg/day in food", "result": "No clear benefit"}
    ]}
  ]
}
